Results reported in ChEMBL document CHEMBL1909046, “DrugMatrix in vitro pharmacology data”.
pIC50, pKi: −log10 of the molar value.

Key:
[1] = DRUGMATRIX: Atrial Natriuretic Factor (ANF) radioligand binding (ligand: [125I] ANF (rat)); assay type: cell membranes, Cavia porcellus, Dunkin-Hartley, Adrenal gland, Membrane; conditions: Not Active = under 50% inhibition at 10 µM
Endothelin-1 receptor = molecular target: T1, Endothelin-1 receptor (Homo sapiens, UniProt P25101); assay type: cell membranes, Membrane; conditions: cho-k1; further: in other assays of this panel Not Active means under 50% inhibition at 10 µM
T1 sequence (P25101 whole entry): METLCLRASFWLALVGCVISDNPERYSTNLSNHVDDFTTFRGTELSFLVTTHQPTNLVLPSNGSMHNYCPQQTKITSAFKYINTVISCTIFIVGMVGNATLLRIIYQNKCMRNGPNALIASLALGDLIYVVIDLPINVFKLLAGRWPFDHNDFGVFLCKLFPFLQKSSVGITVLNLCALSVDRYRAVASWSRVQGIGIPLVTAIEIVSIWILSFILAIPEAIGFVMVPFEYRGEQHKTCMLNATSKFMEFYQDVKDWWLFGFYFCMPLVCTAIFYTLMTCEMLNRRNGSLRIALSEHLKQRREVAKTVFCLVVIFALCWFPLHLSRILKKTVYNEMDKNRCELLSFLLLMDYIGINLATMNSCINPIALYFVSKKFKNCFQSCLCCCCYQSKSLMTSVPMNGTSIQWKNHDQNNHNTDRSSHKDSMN

[2] = DRUGMATRIX: Platelet-Derived Growth Factor (PDGF) radioligand binding (ligand: [125I] PDGF); assay type: cell-based; conditions: nih3t3; Not Active = under 50% inhibition at 10 µM
Substance-P receptor = Substance-P receptor (Homo sapiens, UniProt P25103); assay type: cell membranes, Membrane; conditions: cho; further: in other assays of this panel Not Active means under 50% inhibition at 10 µM
[3] = DRUGMATRIX: GABAA, Muscimol, Central radioligand binding (ligand: [3H] Muscimol); assay type: cell membranes, Rattus norvegicus, Wistar, Brain, Membrane; conditions: Not Active = under 50% inhibition at 10 µM
[4] = molecular target: Delta-type opioid receptor (Homo sapiens, UniProt P41143); assay type: cell membranes, HEK293, Membrane; further: in other assays of this panel Not Active means under 50% inhibition at 10 µM
[5] = molecular target: Voltage-gated inwardly rectifying potassium channel KCNH2 (Homo sapiens, UniProt Q12809); conditions: hek293; further: in other assays of this panel Not Active means under 50% inhibition at 10 µM
D(1A) dopamine receptor = D(1A) dopamine receptor (Homo sapiens, UniProt P21728); assay: DRUGMATRIX: Dopamine D1 radioligand binding (ligand: [3H] SCH-23390); assay type: cell membranes, CHO, Membrane; conditions: Not Active = under 50% inhibition at 10 µM
Chain of D(1A) dopamine receptor (P21728 whole entry): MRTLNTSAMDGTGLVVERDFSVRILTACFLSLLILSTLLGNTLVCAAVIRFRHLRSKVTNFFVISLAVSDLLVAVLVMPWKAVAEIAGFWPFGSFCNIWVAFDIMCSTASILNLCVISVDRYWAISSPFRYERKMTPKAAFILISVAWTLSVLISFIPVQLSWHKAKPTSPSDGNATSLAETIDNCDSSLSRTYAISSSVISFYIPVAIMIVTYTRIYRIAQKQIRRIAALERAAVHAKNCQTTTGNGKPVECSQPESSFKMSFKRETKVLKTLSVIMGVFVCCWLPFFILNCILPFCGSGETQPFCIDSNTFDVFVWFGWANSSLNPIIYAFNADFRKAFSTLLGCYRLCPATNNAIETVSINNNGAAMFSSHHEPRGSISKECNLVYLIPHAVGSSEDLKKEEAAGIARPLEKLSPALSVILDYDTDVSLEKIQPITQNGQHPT

Chain of Voltage-gated inwardly rectifying potassium channel KCNH2 (Q12809 whole entry): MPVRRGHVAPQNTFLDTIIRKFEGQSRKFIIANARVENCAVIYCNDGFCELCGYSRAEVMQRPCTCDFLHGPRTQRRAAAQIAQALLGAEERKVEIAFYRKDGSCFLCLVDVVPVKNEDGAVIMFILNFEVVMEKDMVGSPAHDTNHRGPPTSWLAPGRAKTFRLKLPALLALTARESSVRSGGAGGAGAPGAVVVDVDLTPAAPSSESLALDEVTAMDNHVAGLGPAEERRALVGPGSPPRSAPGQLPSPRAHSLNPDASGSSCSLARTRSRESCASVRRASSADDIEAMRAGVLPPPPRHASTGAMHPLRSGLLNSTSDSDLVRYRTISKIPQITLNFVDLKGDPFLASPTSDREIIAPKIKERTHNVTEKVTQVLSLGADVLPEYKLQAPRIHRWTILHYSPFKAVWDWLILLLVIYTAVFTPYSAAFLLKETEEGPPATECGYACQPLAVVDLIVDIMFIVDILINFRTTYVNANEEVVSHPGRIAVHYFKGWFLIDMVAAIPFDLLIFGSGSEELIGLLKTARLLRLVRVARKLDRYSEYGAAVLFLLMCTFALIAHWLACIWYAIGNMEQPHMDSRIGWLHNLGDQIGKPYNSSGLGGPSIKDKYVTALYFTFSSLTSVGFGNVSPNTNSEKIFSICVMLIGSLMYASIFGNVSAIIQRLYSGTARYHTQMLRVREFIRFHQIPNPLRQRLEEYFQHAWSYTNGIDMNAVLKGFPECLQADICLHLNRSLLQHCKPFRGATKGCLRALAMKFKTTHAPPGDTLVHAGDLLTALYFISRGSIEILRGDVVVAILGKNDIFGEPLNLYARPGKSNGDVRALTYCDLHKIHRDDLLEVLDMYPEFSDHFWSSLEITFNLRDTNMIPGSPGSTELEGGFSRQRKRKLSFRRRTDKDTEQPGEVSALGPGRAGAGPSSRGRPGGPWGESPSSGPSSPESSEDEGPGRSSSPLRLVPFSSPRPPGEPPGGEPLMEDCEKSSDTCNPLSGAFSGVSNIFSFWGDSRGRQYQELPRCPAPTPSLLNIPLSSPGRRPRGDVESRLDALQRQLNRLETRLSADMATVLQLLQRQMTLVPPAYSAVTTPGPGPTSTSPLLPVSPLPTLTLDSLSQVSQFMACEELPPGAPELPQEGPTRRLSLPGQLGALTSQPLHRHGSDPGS
Chain of Delta-type opioid receptor (P41143 whole entry): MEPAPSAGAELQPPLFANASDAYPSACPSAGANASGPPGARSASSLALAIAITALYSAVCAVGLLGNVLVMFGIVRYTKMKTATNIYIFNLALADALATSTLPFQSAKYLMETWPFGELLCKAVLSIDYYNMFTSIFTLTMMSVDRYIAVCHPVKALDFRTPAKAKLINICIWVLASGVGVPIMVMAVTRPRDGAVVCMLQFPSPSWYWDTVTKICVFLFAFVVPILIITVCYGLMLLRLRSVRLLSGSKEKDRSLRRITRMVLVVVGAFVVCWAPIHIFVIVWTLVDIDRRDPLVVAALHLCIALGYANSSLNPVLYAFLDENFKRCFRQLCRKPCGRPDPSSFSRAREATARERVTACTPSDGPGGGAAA
Chain of Substance-P receptor (P25103 whole entry): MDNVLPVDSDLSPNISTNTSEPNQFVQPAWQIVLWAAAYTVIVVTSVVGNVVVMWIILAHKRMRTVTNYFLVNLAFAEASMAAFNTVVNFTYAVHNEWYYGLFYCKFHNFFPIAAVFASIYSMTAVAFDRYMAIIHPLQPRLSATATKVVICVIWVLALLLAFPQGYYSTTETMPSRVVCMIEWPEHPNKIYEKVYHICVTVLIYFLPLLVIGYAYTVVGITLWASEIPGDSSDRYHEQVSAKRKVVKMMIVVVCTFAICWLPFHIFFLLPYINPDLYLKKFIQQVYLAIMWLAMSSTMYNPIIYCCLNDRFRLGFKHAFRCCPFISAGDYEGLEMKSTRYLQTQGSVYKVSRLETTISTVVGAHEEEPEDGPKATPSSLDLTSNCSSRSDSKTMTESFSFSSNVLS

OC[C@H]1OC2C3[C@@H](CO)OC(O[C@H]4[C@H](O)[C@@H](O)[C@@H](O[C@H]5[C@H](O)[C@@H](O)[C@@H](O[C@H]6[C@H](O)[C@@H](O)[C@@H](O[C@H]7[C@H](O)[C@@H](O)[C@@H](O[C@H]8[C@H](O)[C@@H](O)[C@@H](O[C@H]9[C@H](O)[C@@H](O)C(OC1[C@H](O)[C@H]2O)O[C@@H]9CO)O[C@@H]8CO)O[C@@H]7CO)O[C@@H]6CO)O[C@@H]5CO)O[C@@H]4CO)[C@H](O)[C@H]3O
IC50 [1]: Not Active | Ki [1]: Not Active | IC50 (Endothelin-1 receptor): Not Active | IC50 [2]: Not Active | Ki [2]: Not Active | IC50 (Substance-P receptor): Not Active | IC50 [3]: Not Active | Ki [3]: Not Active | IC50 ([4]; hek293): Not Active | IC50 [5]: Not Active | Ki [5]: Not Active | IC50 (D(1A) dopamine receptor; cho): Not Active

CN(CCOc1ccc(C[C@H](Nc2ccccc2C(=O)c2ccccc2)C(=O)O)cc1)c1ccccn1
IC50 [1]: Not Active | Ki [1]: Not Active | IC50 (Endothelin-1 receptor): Not Active | IC50 [2]: Not Active | Ki [2]: Not Active | IC50 (Substance-P receptor): Not Active | IC50 [3]: Not Active | Ki [3]: Not Active | pIC50 ([4]; read-out: IC50): 5.49 | pKi ([4]; read-out: Ki): 5.95 | IC50 [5]: Not Active | Ki [5]: Not Active | IC50 (D(1A) dopamine receptor; cho): Not Active

CCN1CCN(c2cc3c(cc2F)c(=O)c(C(=O)O)cn3C2CC2)CC1 [ENROFLOXACIN]
IC50 [1]: Not Active | Ki [1]: Not Active | IC50 (Endothelin-1 receptor): Not Active | IC50 [2]: Not Active | Ki [2]: Not Active | IC50 (Substance-P receptor): Not Active | IC50 [3]: Not Active | Ki [3]: Not Active | IC50 ([4]; hek293): Not Active | IC50 [5]: Not Active | Ki [5]: Not Active | IC50 (D(1A) dopamine receptor; cho): Not Active

NC(=O)NC(=O)Cc1ccccc1 [PHENACEMIDE]
IC50 [1]: Not Active | Ki [1]: Not Active | IC50 (Endothelin-1 receptor): Not Active | IC50 [2]: Not Active | Ki [2]: Not Active | IC50 (Substance-P receptor): Not Active | IC50 [3]: Not Active | Ki [3]: Not Active | IC50 ([4]; hek293): Not Active | IC50 [5]: Not Active | Ki [5]: Not Active | IC50 (D(1A) dopamine receptor; cho): Not Active

Cc1cc(C(C)(C)C)c(O)c(C)c1CC1=NCCN1 [OXYMETAZOLINE]
IC50 [1]: Not Active | Ki [1]: Not Active | IC50 (Endothelin-1 receptor): Not Active | IC50 [2]: Not Active | Ki [2]: Not Active | IC50 (Substance-P receptor): Not Active | IC50 [3]: Not Active | Ki [3]: Not Active | IC50 ([4]; hek293): Not Active | IC50 [5]: Not Active | Ki [5]: Not Active | IC50 (D(1A) dopamine receptor; cho): Not Active

CC(CN1c2ccccc2Sc2ccccc21)N(C)C (stereo not given) [PROMETHAZINE]
IC50 [1]: Not Active | Ki [1]: Not Active | IC50 (Endothelin-1 receptor): Not Active | IC50 [2]: Not Active | Ki [2]: Not Active | IC50 (Substance-P receptor): Not Active | IC50 [3]: Not Active | Ki [3]: Not Active | IC50 ([4]; hek293): Not Active | IC50 [5]: Not Active | Ki [5]: Not Active | pIC50 (D(1A) dopamine receptor; read-out: IC50): 5.56 | pKi (D(1A) dopamine receptor; read-out: Ki): 5.86

C[C@]12CC[C@@H](O)C[C@@H]1CC[C@@H]1[C@@H]2CC[C@]2(C)C(=O)CC[C@@H]12 [ANDROSTERONE]
IC50 [1]: Not Active | Ki [1]: Not Active | IC50 (Endothelin-1 receptor): Not Active | IC50 [2]: Not Active | Ki [2]: Not Active | IC50 (Substance-P receptor): Not Active | IC50 [3]: Not Active | Ki [3]: Not Active | IC50 ([4]; hek293): Not Active | IC50 [5]: Not Active | Ki [5]: Not Active | IC50 (D(1A) dopamine receptor; cho): Not Active

ClC1=C(Cl)[C@]2(Cl)[C@@H]3[C@@H]4C[C@@H]([C@H]5O[C@@H]45)[C@@H]3[C@@]1(Cl)C2(Cl)Cl [DIELDRIN]
IC50 [1]: Not Active | Ki [1]: Not Active | IC50 (Endothelin-1 receptor): Not Active | IC50 [2]: Not Active | Ki [2]: Not Active | IC50 (Substance-P receptor): Not Active | IC50 [3]: Not Active | Ki [3]: Not Active | IC50 ([4]; hek293): Not Active | IC50 [5]: Not Active | Ki [5]: Not Active | IC50 (D(1A) dopamine receptor; cho): Not Active

CC(=O)[C@]1(O)Cc2c(O)c3c(c(O)c2[C@@H](O[C@H]2C[C@H](N)[C@H](O)[C@H](C)O2)C1)C(=O)c1ccccc1C3=O [IDARUBICIN]
IC50 [1]: Not Active | Ki [1]: Not Active | IC50 (Endothelin-1 receptor): Not Active | IC50 [2]: Not Active | Ki [2]: Not Active | IC50 (Substance-P receptor): Not Active | IC50 [3]: Not Active | Ki [3]: Not Active | IC50 ([4]; hek293): Not Active | IC50 [5]: Not Active | Ki [5]: Not Active | IC50 (D(1A) dopamine receptor; cho): Not Active

COC(=O)Nc1nc2ccc(Sc3ccccc3)cc2[nH]1 [FENBENDAZOLE]
IC50 [1]: Not Active | Ki [1]: Not Active | IC50 (Endothelin-1 receptor): Not Active | IC50 [2]: Not Active | Ki [2]: Not Active | IC50 (Substance-P receptor): Not Active | IC50 [3]: Not Active | Ki [3]: Not Active | IC50 ([4]; hek293): Not Active | IC50 [5]: Not Active | Ki [5]: Not Active | IC50 (D(1A) dopamine receptor; cho): Not Active

Cc1ccnc2c1NC(=O)c1cccnc1N2C1CC1 [NEVIRAPINE]
IC50 [1]: Not Active | Ki [1]: Not Active | IC50 (Endothelin-1 receptor): Not Active | IC50 [2]: Not Active | Ki [2]: Not Active | IC50 (Substance-P receptor): Not Active | IC50 [3]: Not Active | Ki [3]: Not Active | IC50 ([4]; hek293): Not Active | IC50 [5]: Not Active | Ki [5]: Not Active | IC50 (D(1A) dopamine receptor; cho): Not Active

COPPER(II) OXIDE
IC50 [1]: Not Active | Ki [1]: Not Active | IC50 (Endothelin-1 receptor): Not Active | Ki (Endothelin-1 receptor): Not Active | IC50 [2]: Not Active | Ki [2]: Not Active | IC50 (Substance-P receptor): Not Active | Ki (Substance-P receptor): Not Active | IC50 [3]: Not Active | Ki [3]: Not Active | IC50 ([4]; hek293): Not Active | Ki ([4]; hek293): Not Active | IC50 [5]: Not Active | Ki [5]: Not Active | IC50 (D(1A) dopamine receptor; cho): Not Active | Ki (D(1A) dopamine receptor; cho): Not Active

OC[C@H]1O[C@@H]2O[C@H]3[C@H](O)[C@@H](O)[C@@H](O[C@H]4[C@H](O)[C@@H](O)[C@@H](O[C@H]5[C@H](O)[C@@H](O)[C@@H](O[C@H]6[C@H](O)[C@@H](O)[C@@H](O[C@H]7[C@H](O)[C@@H](O)[C@@H](O[C@H]8[C@H](O)[C@@H](O)[C@@H](O[C@H]1[C@H](O)[C@H]2O)O[C@@H]8CO)O[C@@H]7CO)O[C@@H]6CO)O[C@@H]5CO)O[C@@H]4CO)O[C@@H]3CO [BETADEX]
IC50 [1]: Not Active | Ki [1]: Not Active | IC50 (Endothelin-1 receptor): Not Active | IC50 [2]: Not Active | Ki [2]: Not Active | IC50 (Substance-P receptor): Not Active | IC50 [3]: Not Active | Ki [3]: Not Active | IC50 ([4]; hek293): Not Active | IC50 [5]: Not Active | Ki [5]: Not Active | IC50 (D(1A) dopamine receptor; cho): Not Active

O=C(O)CO [GLYCOLIC ACID]
IC50 [1]: Not Active | Ki [1]: Not Active | IC50 (Endothelin-1 receptor): Not Active | IC50 [2]: Not Active | Ki [2]: Not Active | IC50 (Substance-P receptor): Not Active | IC50 [3]: Not Active | Ki [3]: Not Active | IC50 ([4]; hek293): Not Active | IC50 [5]: Not Active | Ki [5]: Not Active | IC50 (D(1A) dopamine receptor; cho): Not Active

COc1cc(NC(C)CCCN)c2ncccc2c1 (stereo not given) [PRIMAQUINE]
IC50 [1]: Not Active | Ki [1]: Not Active | IC50 (Endothelin-1 receptor): Not Active | IC50 [2]: Not Active | Ki [2]: Not Active | IC50 (Substance-P receptor): Not Active | IC50 [3]: Not Active | Ki [3]: Not Active | IC50 ([4]; hek293): Not Active | IC50 [5]: Not Active | Ki [5]: Not Active | IC50 (D(1A) dopamine receptor; cho): Not Active

CCO [ALCOHOL]
IC50 [1]: Not Active | Ki [1]: Not Active | IC50 (Endothelin-1 receptor): Not Active | IC50 [2]: Not Active | Ki [2]: Not Active | IC50 (Substance-P receptor): Not Active | IC50 [3]: Not Active | Ki [3]: Not Active | IC50 ([4]; hek293): Not Active | IC50 [5]: Not Active | Ki [5]: Not Active | IC50 (D(1A) dopamine receptor; cho): Not Active

CC(C)(c1ccc(O)cc1)c1ccc(O)cc1 [BISPHENOL A]
IC50 [1]: Not Active | Ki [1]: Not Active | IC50 (Endothelin-1 receptor): Not Active | IC50 [2]: Not Active | Ki [2]: Not Active | IC50 (Substance-P receptor): Not Active | IC50 [3]: Not Active | Ki [3]: Not Active | IC50 ([4]; hek293): Not Active | IC50 [5]: Not Active | Ki [5]: Not Active | IC50 (D(1A) dopamine receptor; cho): Not Active
